Experimental data taken from patent publication US9006241B2, “Pyrimidine derivatives” (Noviga Research AB, priority 2011, dated 2015).

How the values were obtained:
Assay type in all cases: cell-based
HL-60 (leukemia) = assay: FMCA, HL-60; details: Homo sapiens, HL-60 leukemia cells
Text: (§1) The Fluorometric Microculture Cytotoxicity Assay, FMCA (Larsson, R., et al.; Anticancer Res, 1989, 9, 1111-1119), is a three day non-clonogenic microplate-based cell viability assay used for measurement of the cytotoxic and/or cytostatic effect of compounds in vitro (Lindhagen, E. et al.; Nat. Protoc., 2008, 3, 1364-1369). FMCA represents a valuable method to measure cytotoxicity in a number of cell types, both cell lines and primary cells from patients (Larsson, R., et al.; Int. J. Cancer, 1992, 50, 177-185; Fridborg, H., et al.; Eur. J. Cancer, 1999. 35, 424-432; Dhar, S., et al.; Br. J. Cancer, 1996, 74, 888-896).
(§2) FMCA is based on the principle that fluorescein diacetate (FDA) is converted to the fluorescent probe fluorescein by esterases in the plasma membranes of living cells. For experiments, 96 or 384-well microplates are prepared with compounds and stored at −70° C. until use. Cells are then seeded into the drug-prepared plates and placed in an incubator for 72 h. On the last day of incubation, the plates are washed and a buffer containing FDA is added and incubated with the cells for 45 minutes. Finally the fluorescence per well is measured in a fluorometer and a Survival Index % (SI) for each compound-treated well is calculated with the equation: Compound-treated cells minus blank divided by control cells minus blank. A high SI-value indicates a large percentage of living cells and vice versa.
(§3) For dose-response experiments, 384-well plates were prepared as follows:
(§4) Compounds of the invention as well comparative kinase inhibitors sorafenib sunitinib, dasatinib, pazopanib and a reference compound disclosed in WO 2009/071535 (compound #107) were diluted with PBS to a concentration ten-times higher than the desired starting concentration. Then, a Biomek 2000 liquid handling system was employed to serially dilute the compounds in a deep-well 384-well plate. From this plate, assay plates containing 5 μl compound per well were prepared with the Biomek 2000. Certain compounds precipitated when diluted with PBS, and these compounds were therefore prepared in a 96-well plate manually as described above using culture medium RPMI 1640 instead of PBS.
(§5) The compounds were also tested at five concentrations, with five times serial dilution on the following cell types: CCRF-CEM, hTERT-RPE1 (normal retinal epithelial cells), hRPTEpiC (normal renal cells), and peripheral blood mononuclear cells (PBMC). Each experiment was performed three times, except for PBMC and hRPTEpiC, which were performed twice. SI-values were calculated, graphs were plotted using GraphPadPrism 5.0 (GraphPad Software Inc. La Jolla, Calif.) and IC50-values for each cell type and compound were determined from the curves.
(§6) The compounds of the invention were also tested on further cancer cell lines related to breast cancer (MDA-MB-231; see e.g. Cailleau, R., et al.; J. Natl. Cancer Inst., 1974, 53, 661-674), teniposide-resistant leukemia (CEM/VM1 see e.g. Danks, M., et al.; Cancer Res., 1987, 47, 1297-1301), leukemia (HL-60; see e.g. Collins, S., et al.; Nature, 1977, 270, 347-349), doxorubicin-resistant lung cancer (H69AR; see e.g. Mirski, S., et al.; Cancer Res., 1987, 47, 2594-2598), myeloma (RPMI 8226; see e.g. Matsuoka, Y., et al.; Proc. Soc. Exp. Biol. Med., 1967, 125, 1246-1250), doxorubicin-resistant myeloma (8226/Dox40; see e.g. Dalton, W., et al.; Blood, 1989, 15, 747-752), lymphoma (U-937, see e.g. Sundström, C., et al.; Int. […]

[1] = system: MDA-MB-231 (breast cancer); assay: FMCA, MDA-MB-231; details: Homo sapiens, MDA-MB-231 breast cancer cells
Text: as §1, §2, §3, §4, §5, §6

PC-3 (prostate cancer) = assay: FMCA, PC-3; details: PC-3 prostate cancer cells
Text: as §1, §2, §3, §4, §5, §6

[2] = system: BxPC-3 (pancreatic cancer); assay: FMCA, BxPC-3; details: Homo sapiens, BxPC-3 pancreatic cancer cells
Text: as §1, §2, §3, §4, §5, §6

[3] = system: 8226/Dox40 (doxorubicin-resistant myeloma); assay: FMCA, 8226/Dox40; details: 8226/Dox40 doxorubicin-resistant myeloma cells
Text: as §1, §2, §3, §4, §5
as §6, with “Int. J. Cancer, 1976, 17, 565-577), vincristin-resistant lymphoma (U-937-vcr; see e.g. Botling, J., et al.; Int. J. Cancer, 1994, 58, 269-274), ovarian cancer (A2780; see e.g. Hamilton, T., et al.; Semin. Oncol., 1984, 11, 285-298), doxorubicin-resistant ovarian cancer (A2780/Adr), cisplatin-resistant ovarian cancer (A2780/Cis; see e.g. Behrens, B., et al. Cancer Res. 1987, 47, 414-418), pancreatic cancer (PANC-1, BxPC-3, and MIA PaCa-2; see e.g. Lieber, M., et al.; Int. J. Cancer, 1975, 15, 741-747; Loor, R., et al.; Clin. Lab.” for “Int.”

[4] = system: CEM/VM1 (teniposide-resistant leukemia); assay: FMCA, CEM/VM1; details: Homo sapiens, CEM/VM1 teniposide-resistant leukemia cells
Text: as §1, §2, §3, §4, §5
as §6, with “Int. J. Cancer, 1976, 17, 565-577), vincristin-resistant lymphoma (U-937-vcr; see e.g. Botling, J., et al.; Int. J. Cancer, 1994, 58, 269-274), ovarian cancer (A2780; see e.g. Hamilton, T., et al.; Semin. Oncol., 1984, 11, 285-298), doxorubicin-resistant ovarian cancer (A2780/Adr), cisplatin-resistant ovarian cancer (A2780/Cis; see e.g. Behrens, B., et al. Cancer Res. 1987, 47, 414-418), pancreatic cancer (PANC-1, BxPC-3, and MIA PaCa-2; see e.g. Lieber, M., et al.; Int. J. Cancer, 1975, 15, 741-747; Loor, R., et al.; Clin. Lab.” for “Int.”

A2780 (ovarian cancer) = assay: FMCA, A2780; details: Homo sapiens, A2780 ovarian cancer cells
Text: as §1, §2, §3, §4, §5
as §6, with “Int. J. Cancer, 1976, 17, 565-577), vincristin-resistant lymphoma (U-937-vcr; see e.g. Botling, J., et al.; Int. J. Cancer, 1994, 58, 269-274), ovarian cancer (A2780; see e.g. Hamilton, T., et al.; Semin. Oncol., 1984, 11, 285-298), doxorubicin-resistant ovarian cancer (A2780/Adr), cisplatin-resistant ovarian cancer (A2780/Cis; see e.g. Behrens, B., et al. Cancer Res. 1987, 47, 414-418), pancreatic cancer (PANC-1, BxPC-3, and MIA PaCa-2; see e.g. Lieber, M., et al.; Int. J. Cancer, 1975, 15, 741-747; Loor, R., et al.; Clin. Lab.” for “Int.”

[5] = system: U-937-vcr (vincristin-resistant lymphoma); assay: FMCA, U-937-vcr; details: U-937-vcr vincristin-resistant lymphoma cells
Text: as §1, §2, §3, §4, §5
as §6, with “Int. J. Cancer, 1976, 17, 565-577), vincristin-resistant lymphoma (U-937-vcr; see e.g. Botling, J., et al.; Int. J. Cancer, 1994, 58, 269-274), ovarian cancer (A2780; see e.g. Hamilton, T., et al.; Semin. Oncol., 1984, 11, 285-298), doxorubicin-resistant ovarian cancer (A2780/Adr), cisplatin-resistant ovarian cancer (A2780/Cis; see e.g. Behrens, B., et al. Cancer Res. 1987, 47, 414-418), pancreatic cancer (PANC-1, BxPC-3, and MIA PaCa-2; see e.g. Lieber, M., et al.; Int. J. Cancer, 1975, 15, 741-747; Loor, R., et al.; Clin. Lab.” for “Int.”

[6] = system: A2780/Adr (doxorubicin-resistant ovarian cancer); assay: FMCA, A2780/Adr; details: A2780/Adr doxorubicin-resistant ovarian cancer cells
Text: as §1, §2, §3, §4, §5
as §6, with “Int. J. Cancer, 1976, 17, 565-577), vincristin-resistant lymphoma (U-937-vcr; see e.g. Botling, J., et al.; Int. J. Cancer, 1994, 58, 269-274), ovarian cancer (A2780; see e.g. Hamilton, T., et al.; Semin. Oncol., 1984, 11, 285-298), doxorubicin-resistant ovarian cancer (A2780/Adr), cisplatin-resistant ovarian cancer (A2780/Cis; see e.g. Behrens, B., et al. Cancer Res. 1987, 47, 414-418), pancreatic cancer (PANC-1, BxPC-3, and MIA PaCa-2; see e.g. Lieber, M., et al.; Int. J. Cancer, 1975, 15, 741-747; Loor, R., et al.; Clin. Lab.” for “Int.”

U-937 (lymphoma) = assay: FMCA, U-937; details: Homo sapiens, U-937 lymphoma cells
Text: as §1, §2, §3, §4, §5
as §6, with “Int. J. Cancer, 1976, 17, 565-577), vincristin-resistant lymphoma (U-937-vcr; see e.g. Botling, J., et al.; Int. J. Cancer, 1994, 58, 269-274), ovarian cancer (A2780; see e.g. Hamilton, T., et al.; Semin. Oncol., 1984, 11, 285-298), doxorubicin-resistant ovarian cancer (A2780/Adr), cisplatin-resistant ovarian cancer (A2780/Cis; see e.g. Behrens, B., et al. Cancer Res. 1987, 47, 414-418), pancreatic cancer (PANC-1, BxPC-3, and MIA PaCa-2; see e.g. Lieber, M., et al.; Int. J. Cancer, 1975, 15, 741-747; Loor, R., et al.; Clin. Lab.” for “Int.”

[7] = system: PANC-1 (pancreatic cancer); assay: FMCA, PANC-1; details: Homo sapiens, PANC-1 pancreatic cancer cells
Text: as §1, §2, §3, §4, §5, §6

[8] = system: A2780/Cis (cisplatin-resistant ovarian cancer); assay: FMCA, A2780/Cis; details: A2780cis, A2780/Cis cisplatin-resistant ovarian cancer cells
Text: as §1, §2, §3, §4, §5
as §6, with “Int. J. Cancer, 1976, 17, 565-577), vincristin-resistant lymphoma (U-937-vcr; see e.g. Botling, J., et al.; Int. J. Cancer, 1994, 58, 269-274), ovarian cancer (A2780; see e.g. Hamilton, T., et al.; Semin. Oncol., 1984, 11, 285-298), doxorubicin-resistant ovarian cancer (A2780/Adr), cisplatin-resistant ovarian cancer (A2780/Cis; see e.g. Behrens, B., et al. Cancer Res. 1987, 47, 414-418), pancreatic cancer (PANC-1, BxPC-3, and MIA PaCa-2; see e.g. Lieber, M., et al.; Int. J. Cancer, 1975, 15, 741-747; Loor, R., et al.; Clin. Lab.” for “Int.”

RPMI 8226 (myeloma) = assay: FMCA, RPMI 8226; details: Homo sapiens, RPMI 8226 myeloma cells
Text: as §1, §2, §3, §4, §5
as §6, with “Int. J. Cancer, 1976, 17, 565-577), vincristin-resistant lymphoma (U-937-vcr; see e.g. Botling, J., et al.; Int. J. Cancer, 1994, 58, 269-274), ovarian cancer (A2780; see e.g. Hamilton, T., et al.; Semin. Oncol., 1984, 11, 285-298), doxorubicin-resistant ovarian cancer (A2780/Adr), cisplatin-resistant ovarian cancer (A2780/Cis; see e.g. Behrens, B., et al. Cancer Res. 1987, 47, 414-418), pancreatic cancer (PANC-1, BxPC-3, and MIA PaCa-2; see e.g. Lieber, M., et al.; Int. J. Cancer, 1975, 15, 741-747; Loor, R., et al.; Clin. Lab.” for “Int.”

[9] = system: H69AR (doxorubicin-resistant lung cancer); assay: FMCA, H69AR; details: Homo sapiens, H69AR doxorubicin-resistant lung cancer cells
Text: as §1, §2, §3, §4, §5
as §6, with “Int. J. Cancer, 1976, 17, 565-577), vincristin-resistant lymphoma (U-937-vcr; see e.g. Botling, J., et al.; Int. J. Cancer, 1994, 58, 269-274), ovarian cancer (A2780; see e.g. Hamilton, T., et al.; Semin. Oncol., 1984, 11, 285-298), doxorubicin-resistant ovarian cancer (A2780/Adr), cisplatin-resistant ovarian cancer (A2780/Cis; see e.g. Behrens, B., et al. Cancer Res. 1987, 47, 414-418), pancreatic cancer (PANC-1, BxPC-3, and MIA PaCa-2; see e.g. Lieber, M., et al.; Int. J. Cancer, 1975, 15, 741-747; Loor, R., et al.; Clin. Lab.” for “Int.”

[10] = system: MIA PaCa-2 (pancreatic cancer); assay: FMCA, MIA PaCa-2; details: Homo sapiens, MIA PaCa-2 pancreatic cancer cells
Text: as §1, §2, §3, §4, §5, §6

[11] = system: CCRF-CEM cancer cells - leukemia; assay: Fluorometric Microculture Cytotoxicity Assay (FMCA), CCRF-CEM; details: Homo sapiens, 72 h incubation
Text: as §1, §2
In subsequent experiments, compounds were tested, along with a number of approved cancer drugs (dasatinib, pazopanib, sorafenib, and sunitinib) as described above. Initially, the acute lymphoblastic leukemia cell line CCRF-CEM was used throughout. In the assay plates, medium was added to six empty wells (blank wells) and wells were filled with PBS and cell suspension and served as control wells. SI-values were then calculated for each compound-treated well as described above. All experiments were conducted twice and a new batch of plates was prepared for each experiment.
as §3, §4, §5

## CCOc1ccc2[nH]cc(CCNc3nccc(Nc4ccc5[nH]c(C)cc5c4)n3)c2c1 [Example 5, N^2-[2-(5-ethoxy-1H-indol-3-yl)ethyl]-N^4-(2-methyl-1H-indol-5-yl)pyrimidine-2,4-diamine]
HL-60 (leukemia)
  EC50: 8.2 nM
[1]
  EC50: 57 nM
PC-3 (prostate cancer)
  EC50: 150 nM
[2]
  EC50: 55 nM
[3]
  EC50: 160 nM
[4]
  EC50: 17 nM
A2780 (ovarian cancer)
  EC50: 51 nM
[5]
  EC50: 20 nM
[6]
  EC50: 180 nM
U-937 (lymphoma)
  EC50: 22 nM
[7]
  EC50: 430 nM
[8]
  EC50: 33 nM
RPMI 8226 (myeloma)
  EC50: 42 nM
[9]
  EC50: 94 nM
[10]
  EC50: 18 nM
[11]
  EC50: 15 nM
